Experimental data published in patent US20240099344A1, “HYDROXY- AND METHOXY-SUBSTITUTED FLAVONOIDS AND THEIR USE” (Firmenich SA, priority 2021, published 2024).

How the values were obtained:
[1] = system: human sensory panel (sweet, bitter or astringent taste); assay: Sensory testing in model bases (human sensory panel, 20 trained panelists); format: in vivo; details: 10 ppm; scale of −5 (strong masking effect) to 5 (strong enhancing effect); 0 = reference water solution containing 4% sucrose or 10 ppm mixture of Limonin, Naringin and Nomilin
Source text: Certain HMF compounds were tasted by a human sensory panel to assess their ability to reduce bitterness, reduce astringency, and enhance sweetness. The panel consisted of 20 trained panelists evaluating the samples at 10 ppm for taste properties (sweet, bitter or astringent) on a scale of −5 to 5 (−5 denoted strong masking effect and 5 denoted strong enhancing effect, 0 being the intensity of a reference water solution containing 4% sucrose or 10 ppm mixture of Limonin, Naringin and Nomilin).

[2] = system: human sensory panel (bitter and astringent taste); assay: Sensory testing in applications (human sensory panel, 8 experts); format: in vivo; details: scale of −5 (strong masking) to 5 (strong enhancing), 0 = reference application; for Smart Protein Beverage Astringent / Smart Protein Beverage Bitter / Smart Protein Beverage Off-flavor: 10 ppm in smart protein beverage
Source text: Certain HMF compounds were tasted by a human sensory panel to assess their ability to reduce bitterness and astringency. The panel consisted of 8 experts evaluating the samples at 10 ppm for taste properties (bitter and astringent) on a scale of −5 to 5 (−5 denoted strong masking effect and 5 denoted strong enhancing effect, 0 being the intensity of a reference application in coffee, tea or pomegranate juice, smart protein beverage).

| Compound | Astringency [1] | Bitterness [1] | Sweetness [1] | Smart Protein Beverage Astringent [2] | Smart Protein Beverage Bitter [2] | Smart Protein Beverage Off-flavor [2] | Coffee Astringency ([2]; 10 ppm in coffee) | Coffee Bitterness ([2]; 10 ppm in coffee) | Pomegranate Juice Astringency ([2]; 10 ppm in pomegranate juice) | Pomegranate Juice Bitterness ([2]; 10 ppm in pomegranate juice) | Tea Astringency ([2]; 10 ppm in tea) | Tea Bitterness ([2]; 10 ppm in tea) |
| --- | --- | --- | --- | --- | --- | --- | --- | --- | --- | --- | --- | --- |
| COc1cc(-c2oc3cc(O)cc(O)c3c(=O)c2O)ccc1O [Compound 106, 3,4′,5,7-tetrahydroxy-3′-methoxyflavone] | −0.34 | −1.47 | 0.58 |  |  |  |  |  |  |  |  |  |
| COc1ccc(-c2cc(=O)c3c(O)c(OC)c(O)cc3o2)cc1OC [Compound 105, 5,7-dihydroxy-6,3′,4′-trimethoxyflavone] | −0.53 | −2.02 | 0.58 | −1.0 | −0.80 | −0.80 |  |  |  |  |  |  |
| COc1ccc(-c2oc3cc(OC)c(OC)c(O)c3c(=O)c2OC)cc1O [Compound 108, 3,6,7,4′-tetramethoxy-5,3′-dihydroxyflavone] | −1.01 | −1.94 | −0.08 | −0.33 | −0.42 | −0.33 |  |  |  |  |  |  |
| O=c1cc(-c2ccc(O)cc2)oc2cc(O)c(O)c(O)c12 [Compound 103, 5,6,7,4′-tetrahydroxyflavone] | −0.35 | −1.28 | 0.50 | 0.25 | 0.00 | −0.50 |  |  |  |  |  |  |
| COc1ccc(-c2cc(=O)c3c(O)c(OC)c(O)c(OC)c3o2)cc1 [Compound 101, 5,7-dihydroxy-6,8,4′-trimethoxyflavone] | −1.21 | −1.59 | −0.23 | 0.4 | −0.6 | −0.1 | 0.17 | −0.58 | 0.67 | 0.31 | 1.00 | 0.83 |
| COc1c(O)cc2oc(-c3ccccc3)cc(=O)c2c1O [Compound 104, 5,7-dihydroxy-6-methoxyflavone] | −0.48 | −1.08 | 0.17 |  |  |  |  |  |  |  |  |  |
| COc1cc(O)cc2c1C(=O)CC(c1ccccc1)O2 (stereo not drawn) [Compound 107, 5-methoxy-7-hydroxyflavanone] | −1.56 | −2.56 | 0.08 |  |  |  |  |  |  |  |  |  |
| COc1c(O)cc(O)c2c(=O)cc(-c3ccccc3)oc12 [Compound 109, 5,7-dihydroxy-8-methoxyflavone] | −0.64 | −1.54 | −0.58 |  |  |  |  |  |  |  |  |  |
